Experiments:
[1] = test system: human colon cancer cell lines: HCT 116, SW620, LoVo, Caco-2, and HT-29; assay: MTT cell viability assay, statements across the panel; assay type: cell-based; details: Homo sapiens, range over the cancer cell lines, read-out: IC50 range against colon cancer cell lines
Protocol: The cytotoxic activity of the 3-benzylideneflavanones, 3-benzylidenechromanones derivatives (compounds 1, 2, 3, 4, 5) and 5′-(3-methoxyphenyl)-2-phenyl-4′,5′-dihydro-4H-spiro[chromano-3,3′-pirazol]-4-one (compound 3a) was evaluated using the MTT assay (4,5-dimethylthiazol-2-yl)-2,5-diphenyltetrazoliumbromide), a colorimetric method that quantifies cell viability. […] These IC50 values were subsequently used for all experiments investigating the anticancer activity of the flavanone/chromanone derivatives in this study.
(§1) Cell viability was determined using the metabolic microplate spectrophotometric assay with Methylthiazolyl diphenyltetrazolium bromide (MTT) (Sigma-Aldrich; St. Louis, MO, USA). The MTT method belongs to metabolic tests for determining cell viability and consists of measuring the absorbance of a violet solution of formazan, a product of the reduction of a water-soluble yellow MTT by oxidoreductive enzymes (mainly mitochondrial succinate dehydrogenase) of living cells. The amount of the reaction product (water-insoluble formazan crystals) is proportional to the number of living and metabolically active cells in the sample. In the case of damaged or dead cells, formazan is formed in smaller amounts, or it is not formed.
The appropriate number of cells for a given cell line (6–8 × 10^3 cells/mL) were seeded onto colorless, sterile 96-well microplates (Nunc, Roskilde, Denmark) in the number appropriate for a given cell line. After 24 h of culture, various concentrations of the studied compounds (10^−7–10^−5 M) freshly prepared in DMSO (final concentration DMS < 0.1%) and diluted with complete culture medium were added and incubated in a CO2 incubator for 24 h. After this time, the medium was removed; the cell monolayer was washed twice with sterile PBS solution; and fresh culture medium was added to the microplate wells. After 48 h of cell culture, the MTT test was performed. A volume of 50 μL of tetrazolium salt solution (final concentration 0.05 mg/mL) was added to each microplate well. The microplate was placed for 3–4 h (depending on the cell line) in a CO2 incubator. After incubation, 100 μL of DMSO was added to the wells of the microplate to dissolve the purple formazan crystals formed in the living cell environment. The absorbance of the formazan solution, after gentle mixing, was read at a wavelength of λ = 580 nm and a reference wavelength of λ = 720 nm (Biotek Power Wave HT, Biotek Instruments, Winooski, VT, USA). The percentage of living cells was calculated by comparing the absorbance value of the tested samples with the absorbance value of the control (cells not treated with compounds). The absorbance of the control was taken as 100%. […] Moreover, cisplatin (Sigma-Aldrich, St. Louis, MO, USA) was used as a reference compound, and identical incubation conditions were used as described above.

[2] = test system: SW620; assay: MTT cell viability assay; assay type: cell-based; details: Homo sapiens, SW-620, 24 h incubation with compound, mean ± SD of three experiments, read-out: Cytotoxic effect, IC50
Protocol: (§2) The cytotoxic activity of the 3-benzylideneflavanones, 3-benzylidenechromanones derivatives (compounds 1, 2, 3, 4, 5) and 5′-(3-methoxyphenyl)-2-phenyl-4′,5′-dihydro-4H-spiro[chromano-3,3′-pirazol]-4-one (compound 3a) was evaluated using the MTT assay (4,5-dimethylthiazol-2-yl)-2,5-diphenyltetrazoliumbromide), a colorimetric method that quantifies cell viability.
as §1
(§3) The appropriate number of cells for a given cell line (6–8 × 10^3 cells/mL) were seeded onto colorless, sterile 96-well microplates (Nunc, Roskilde, Denmark) in the number appropriate for a given cell line. After 24 h of culture, various concentrations of the studied compounds (10^−7–10^−5 M) freshly prepared in DMSO (final concentration DMS < 0.1%) and diluted with complete culture medium were added and incubated in a CO2 incubator for 24 h. After this time, the medium was removed; the cell monolayer was washed twice with sterile PBS solution; and fresh culture medium was added to the microplate wells. After 48 h of cell culture, the MTT test was performed. A volume of 50 μL of tetrazolium salt solution (final concentration 0.05 mg/mL) was added to each microplate well. The microplate was placed for 3–4 h (depending on the cell line) in a CO2 incubator. After incubation, 100 μL of DMSO was added to the wells of the microplate to dissolve the purple formazan crystals formed in the living cell environment. The absorbance of the formazan solution, after gentle mixing, was read at a wavelength of λ = 580 nm and a reference wavelength of λ = 720 nm (Biotek Power Wave HT, Biotek Instruments, Winooski, VT, USA). The percentage of living cells was calculated by comparing the absorbance value of the tested samples with the absorbance value of the control (cells not treated with compounds). The absorbance of the control was taken as 100%.

[3] = test system: HCT 116; assay: MTT cell viability assay; assay type: cell-based; details: Homo sapiens, 24 h incubation with compound, mean ± SD of three experiments, read-out: Cytotoxic effect, IC50
Protocol: as §2, §1, §3

[4] = test system: LoVo; assay: MTT cell viability assay; assay type: cell-based; details: Homo sapiens, 24 h incubation with compound, mean ± SD of three experiments, read-out: Cytotoxic effect, IC50
Protocol: as §2, §1, §3

[5] = test system: Caco-2; assay: MTT cell viability assay; assay type: cell-based, human; details: Homo sapiens, Caco-2, 24 h, 24 h incubation with compound, mean ± SD of three experiments, read-out: Cytotoxic effect, IC50
Protocol: as §2, §1, §3

[6] = test system: HT-29; assay: MTT cell viability assay; assay type: cell-based, human; details: Homo sapiens, HT-29, 24 h, HT-29, 24 h incubation with compound, mean ± SD of three experiments, read-out: Cytotoxic effect, IC50
Protocol: as §2, §1, §3

[7] = test system: poly-ADP ribose polymerase (PARP); design: method as in PMID 35682740; details: previous work of the authors; cited from earlier work

Row | IC50 [1] | SMILES | IC50 [2] | IC50 [3] | IC50 [4] | IC50 [5] | IC50 [6] | Interaction with PARP [7]
1 | 70 to 210 µM | Cc1ccc(/C=C2/C(=O)c3ccccc3OC2c2ccccc2)cc1 (stereo not shown) [Compound 4] | > 250 µM | 113 ± 5.1 µM | 178 ± 4.4 µM | 156 ± 5.2 µM | 172 ± 4.2 µM | 
2 |  | Cc1cccc(C2CC3(N=N2)C(=O)c2ccccc2OC3c2ccccc2)c1 (stereo not shown) [5′-(3-methylphenyl)-2-phenyl-4′,5′-dihydro-4H-spiro[chromano-3,3′-pirazol]-4-one] |  |  |  |  |  | effectively interacted with poly-ADP ribose polymerase (PARP), leading to its inactivation and degradation
3 | 70 to 210 µM | CCN(CC)c1ccc(/C=C2/C(=O)c3ccccc3OC2c2ccccc2)cc1 (stereo not shown) [Compound 2] | 211 ± 2.9 µM | 192 ± 3.4 µM | 200 ± 6.6 µM | > 250 µM | > 250 µM | 

Reference: paper PMC11641365, “Evaluation of In Vitro Biological Activity of Flavanone/Chromanone Derivatives: Molecular Analysis of Anticancer Mechanisms in Colorectal Cancer” (International Journal of Molecular Sciences, 2024)
